A short description of data set [1]: Accelerated stability testing of packaged final product. Conditions: 40° C., 75% RH. It is filed as physicochemical. How it is done:
Accelerated stability testing was conducted by varying the water content of ganciclovir between 1.99% w/w and 2.54% w/w. The packages of final product were stored at 40° C. and 75% RH for a period of three months. At predetermined intervals, some of the packages were opened and analyzed to determine the amount of active ingredient, related impurities (RS), and water content present in the formulation.

Data set [2] relates to herpes simplex virus (HSV). The settings on record: human clinical studies; cited from earlier work.
Data set [3] can be described thus: Moisture uptake by ganciclovir in an open Petri dish. The settings on record: ganciclovir containing 1.99% water, 25° C., 60% RH. It is filed as physicochemical. The method, then:
Different formulations containing variable percentages of water were subjected to stability and moisture uptake studies. For example, ganciclovir containing 1.99% water content was subjected to moisture uptake at 25° C. and 60% relative humidity (RH) in an open Petri dish and the increase in weight was monitored.

The next data set has as its system cytomegalovirus (CMV). Conditions: human clinical studies; cited from earlier work.

With `Nc1nc2c(ncn2COC(CO)CO)c(=O)[nH]1` [ganciclovir, 9-(1,3-dihydroxy-2-propoxymethyl) guanine], the results for the initial purity retained entry in data set [1] (after one month), in data set [1] (after three months) and in data set [1] (after two months) were “at least 97%”, “at least 87%” and “at least 96%”, respectively. The values for the purity lost entry in data set [1] (after one month), in data set [1] (after three months) and in data set [1] (after two months) were “less than about three percent”, “less than about five percent” and “less than about four percent”, respectively. Further, in data set [2], the “activity against herpes simplex virus (HSV)” value is “active”. In addition, the “Increase in moisture during storage” value in data set [3] is “no appreciable increase in moisture during storage”. Moreover, the Moisture gain was 0.12 % w/w in data set [3] (2.0 hrs); 0.38 % w/w in data set [3] (4.0 hrs); 0.46 % w/w in data set [3] (8.0 hrs); 0.49 % w/w in data set [3] (48.0 hrs); 0.50 % w/w in data set [3] (168.0 hrs (1 week)). The “activity against cytomegalovirus (CMV)” value with cytomegalovirus (CMV) was “active”.

These data come from patent US20060189565A1, “Pharmaceutical compositions of ganciclovir” (priority 2002, published 2006).
